According to patent US20040225014A1, “Method for treating ocular hypertension and glaucoma” (SUCAMPO AG, priority 2003, published 2004):
Where two headings read alike, the source gives them in different places. Values belong to the compound of their own block, whether it stands above or below them.

Legend:
[1] = tested on: eyelashes; conditions: marketed eye drops for ocular hypertension and glaucoma; cited from earlier work
[2] = tested on: Male C3H/HeN mice; conditions: mouse, in vivo
Excerpt: (§1) Male C3H/HeN mice of 7 weeks old (seven groups; three mice/group) were used. Following 1-week acclimation, hair on the back of mice was shaved. Two days after the shaving, applications of test compound (13,14-dihydro-15-keto-17-phenyl-18,19,20-trinor-PGF2α isopropyl ester), latanoprost(13,14-dihydro-17-phenyl-18,19,20-trinor-PGF2α isopropyl ester), and vehicle (70 w/w % EtOH) were initiated (Day 1). 0.005%, 0.01% or 0.03% of test compound, 0.005%, 0.01% or 0.03% of latanoprost, or vehicle were applied to the shaved area of the mice at a volume of 0.1 mL once daily for 30 days. The hair growth was scored according to the following criteria.
−: No hair growth observed
(§2) ±: Hair growth observed; less than 10% of shaving area
(§3) +: Hair growth observed; 10-30% of shaving area
(§4) ++: Hair growth observed; 30-50% of shaving area
(§5) +++: Hair growth observed; more than 50% of shaving area

[3] = tested on: Male C3H/HeN mice; test: Hair growth scoring after once daily topical application to the shaved back of mice for 30 days; conditions: for Scores of hair growth: 0.1 mL once daily on shaved area, individual animals
Excerpt: as §1
−: No hair growth observed
as §2, §3, §4, §5

Structure (SMILES): CCCCCCCC(=O)CC[C@@H]1[C@@H](C/C=C\CCCC(=O)OC(C)C)[C@@H](O)C[C@H]1O [Rescula®, 13,14-dihydro-15-keto-20-ethyl-PGF2α isopropylester]
- Eyelash hair growth (side effect of eye drops) [1]: increases length of eyelashes

Structure (SMILES): CCNC(=O)CCC/C=C\C[C@@H]1[C@@H](/C=C/[C@@H](O)CCc2ccccc2)[C@H](O)C[C@@H]1O [bimatoprost, 17-phenyl 18,19,20-trinor PGF2α-N-ethylamide]
- Eyelash hair growth (side effect of eye drops) [1]: induce eyelash hair growth

- Effect on the hair growth (summary in words) [2]: remarkable hair growth stimulation
- Scores of hair growth [2]: −
Structure (SMILES): CC(C)OC(=O)CCC/C=C\C[C@@H]1[C@@H](CC[C@@H](O)CCc2ccccc2)[C@H](O)C[C@@H]1O [Latanoprost, 13,14-dihydro-17-phenyl-18,19,20-trinor-PGF2α isopropyl ester]
- Eyelash hair growth (side effect of eye drops) [1]: induce eyelash hair growth

- Scores of hair growth ([3]; 0.005%, 19 days after first application): −
- Scores of hair growth ([3]; 0.005%, 22 days after first application): −
- Scores of hair growth ([3]; 0.005%, 23 days after first application): −
- Scores of hair growth ([3]; 0.005%, 24 days after first application): −
- Scores of hair growth ([3]; 0.005%, 25 days after first application): −
- Scores of hair growth ([3]; 0.005%, 26 days after first application): −
- Scores of hair growth ([3]; 0.005%, 29 days after first application): −
- Scores of hair growth ([3]; 0.005%, 30 days after first application): −
- Scores of hair growth ([3]; 0.01%, 19 days after first application): −
- Scores of hair growth ([3]; 0.01%, 22 days after first application): −
- Scores of hair growth ([3]; 0.01%, 23 days after first application): −
- Scores of hair growth ([3]; 0.01%, 24 days after first application): −
- Scores of hair growth ([3]; 0.01%, 25 days after first application): −
- Scores of hair growth ([3]; 0.01%, 26 days after first application): −
- Scores of hair growth ([3]; 0.01%, 29 days after first application): −
- Scores of hair growth ([3]; 0.01%, 30 days after first application): −
- Scores of hair growth ([3]; 0.03%, 19 days after first application): −
- Scores of hair growth ([3]; 0.03%, 22 days after first application): −
- Scores of hair growth ([3]; 0.03%, 23 days after first application): −
- Scores of hair growth ([3]; 0.03%, 24 days after first application): −
- Scores of hair growth ([3]; 0.03%, 25 days after first application): −
- Scores of hair growth ([3]; 0.03%, 26 days after first application): −
- Scores of hair growth ([3]; 0.03%, 29 days after first application): −
- Scores of hair growth ([3]; 0.03%, 30 days after first application): −
- Effect on the hair growth (summary in words) ([3]; any concentration tested (0.005%, 0.01%, 0.03%), once daily for 30 days): no effects on the hair growth
Structure (SMILES): CC(C)OC(=O)CCC/C=C\C[C@@H]1[C@@H](CCC(=O)CCc2ccccc2)[C@H](O)C[C@@H]1O [Test compound, 13,14-dihydro-15-keto-17-phenyl-18,19,20-trinor-PGF2α isopropyl ester]

Structure (SMILES): CC(C)OC(=O)CCC/C=C\C[C@@H]1[C@@H](/C=C/[C@@H](O)COc2cccc(C(F)(F)F)c2)[C@H](O)C[C@@H]1O [travoprost, 16-(3-trifluoromethylphenoxy)-17,18,19,20-tetranor PGF2α isopropyl ester]
- Eyelash hair growth (side effect of eye drops) [1]: induce eyelash hair growth
